# Experimental data as given in ChEMBL document CHEMBL1134918, “General solid-phase method to prepare novel cyclic ketone inhibitors of the cysteine protease cruzain” (Bioorg Med Chem Lett, 2002).
# Key:
# Cruzipain = Cruzipain (Trypanosoma cruzi, UniProt P25779); test: Affinity for cysteine protease (Cruzipain) of Chagas' disease
# Procathepsin L = Procathepsin L (Homo sapiens, UniProt P07711); test: Affinity for human Cathepsin L
# Cathepsin B = Cathepsin B (Homo sapiens, UniProt P07858); test: Affinity for human Cathepsin B
# Chain of Cruzipain (P25779 whole entry): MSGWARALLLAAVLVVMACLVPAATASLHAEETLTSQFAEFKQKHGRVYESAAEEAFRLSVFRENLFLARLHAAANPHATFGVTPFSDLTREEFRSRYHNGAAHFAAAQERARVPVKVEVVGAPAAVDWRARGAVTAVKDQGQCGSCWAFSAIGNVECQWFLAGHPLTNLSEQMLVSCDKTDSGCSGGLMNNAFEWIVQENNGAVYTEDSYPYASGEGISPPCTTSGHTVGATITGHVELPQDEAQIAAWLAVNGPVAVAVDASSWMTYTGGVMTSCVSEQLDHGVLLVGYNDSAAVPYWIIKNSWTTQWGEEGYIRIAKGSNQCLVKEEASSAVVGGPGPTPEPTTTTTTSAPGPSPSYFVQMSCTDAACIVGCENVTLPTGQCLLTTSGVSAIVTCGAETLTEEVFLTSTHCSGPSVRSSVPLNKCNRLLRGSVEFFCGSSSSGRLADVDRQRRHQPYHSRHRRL
# Chain of Procathepsin L (P07711 whole entry): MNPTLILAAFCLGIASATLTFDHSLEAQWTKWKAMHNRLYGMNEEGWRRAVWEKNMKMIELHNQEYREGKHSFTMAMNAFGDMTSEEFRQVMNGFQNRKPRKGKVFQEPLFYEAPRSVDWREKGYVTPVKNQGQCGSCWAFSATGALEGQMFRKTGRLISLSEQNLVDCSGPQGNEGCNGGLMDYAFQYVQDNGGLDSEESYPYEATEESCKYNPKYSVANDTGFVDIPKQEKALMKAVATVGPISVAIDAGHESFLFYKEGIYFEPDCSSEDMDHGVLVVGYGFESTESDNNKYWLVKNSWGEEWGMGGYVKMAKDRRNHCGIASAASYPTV
Structure (SMILES),Ki (Cruzipain),Ki (Procathepsin L),Ki (Cathepsin B)
CC(C)N1CC(=O)C(NC(=O)[C@H](Cc2ccccc2)NC(=O)OCc2ccccc2)CC1=O (stereo partly specified),384 nM,597 nM,12900 nM
CC(C)C[C@H](NC(=O)OCc1ccccc1)C(=O)NC1CN(C(=O)[C@H](CC(C)C)NC(=O)OCc2ccccc2)CC1=O (stereo partly specified),–,–,> 1000 nM
COCCN1CC(=O)C(NC(=O)[C@H](Cc2ccccc2)NC(=O)OCc2ccccc2)CC1=O (stereo partly specified),983 nM,865 nM,> 10000 nM
CCCN1CC(=O)C(NC(=O)[C@H](Cc2ccccc2)NC(=O)OCc2ccccc2)CC1=O (stereo partly specified),366 nM,232 nM,10500 nM
CC(C)CN1CC(=O)C(NC(=O)[C@H](Cc2ccccc2)NC(=O)OCc2ccccc2)CC1=O (stereo partly specified),274 nM,299 nM,4550 nM
CC(C)C[C@@H](C(=O)NCC(=O)CNS(=O)(=O)c1ccc(Oc2ccccc2)cc1)c1cccc(-c2ccccc2)c1,–,–,> 10000 nM
O=C(N[C@@H](Cc1ccccc1)C(=O)NC1CC(=O)N(CCc2ccccc2)CC1=O)OCc1ccccc1 (stereo in doubt),53.2 nM,–,–
O=C(N[C@@H](Cc1ccccc1)C(=O)NC1CC(=O)N(CCCc2ccccc2)CC1=O)OCc1ccccc1 (stereo in doubt),16.3 nM,–,–
O=C(N[C@@H](Cc1ccccc1)C(=O)NC1CC(=O)N(Cc2ccccc2)CC1=O)OCc1ccccc1 (stereo in doubt),202 nM,–,–
O=C(N[C@@H](Cc1ccccc1)C(=O)NC1CC(=O)N(CCCc2ccccc2)CC1=O)OCc1ccccc1 (stereo in doubt; 4e),16 nM,19 nM,693 nM
O=C(N[C@@H](Cc1ccccc1)C(=O)NC1CC(=O)N(CCc2ccccc2)CC1=O)OCc1ccccc1 (stereo in doubt; 4f),53 nM,93 nM,6170 nM
O=C(N[C@@H](Cc1ccccc1)C(=O)NC1CC(=O)N(Cc2ccccc2)CC1=O)OCc1ccccc1 (stereo in doubt; 4g),202 nM,377 nM,13200 nM
